Ends that are not written are not given here.
Key:
[1] = system: DHT-induced hyperandrogenic female mice; experiment: Hyperandrogen dihydrotestosterone (DHT)-induced mouse model, reproductive and metabolic symptoms; type: in vivo
Procedure: (§1) Wild type female mice at postnatal day 25 (D25) were randomly grouped into a control group (CTRL), a DHT group, and a DHT+OCN15 ([…] is the polypeptide set forth in SEQ ID NO: 1) group, with at least 8 mice in each group. The control group was implanted subcutaneously with an empty pump and gavaged with 200 μL of normal saline every day; the DHT group was implanted subcutaneously with a slow-release pump containing 5 mg of dihydrotestosterone (DHT) powder and gavaged with 200 μL of normal saline every day; and the DHT+OCN15 group was implanted subcutaneously with a slow-release pump containing 5 mg of DHT powder and gavaged with 200 μl of normal saline containing the polypeptide (500 μg/Kg) every day. The modeling time was 60 days.

oocytes = experiment: Oocyte post-ovulation aging model (in vitro aging in M16 medium); type: cell-based, mouse
Procedure: Wild type female mice were intraperitoneally injected with 5 IU PMSG (pregnant mare serum gonadotropin), followed by an intraperitoneal injection of 5 IU hCG (human chorionic gonadotropin) 48 h later for superovulation. Oocytes were collected after 14 h, and cumulus cells were removed using hyaluronidase. Then, the oocytes were randomly divided into the Aging group and the Aging+OCN15 group and cultured in M16 medium for aging. The Control group was aged for 0 h, the Aging group for 12 h, and the Aging+OCN15 group in M16 containing the polypeptide (1 μg/mL) for 12 h.

DHT model mice liver = experiment: Hyperandrogen-induced mouse liver lipid droplet accumulation (HE staining); type: in vivo; details: DHT+OCN15 treated group vs DHT model mice; FIG. 9
Procedure: as §1
The method for the induction of the mouse PCOS model by hyperandrogen DHT is described in Example 6. After modeling, the mouse liver was taken, fixed overnight by 4% paraformaldehyde (PFA), dehydrated by alcohol gradient, embedded by paraffin, sectioned (5 μm), and subjected to HE staining for morphological observation.

mouse ovary = experiment: Localization of polypeptide targeting in mouse ovary (cryosection, laser confocal microscope); type: in vivo; details: ovaries from Example 4, 10 μm cryosections, DAPI; FIG. 3
Text: To further confirm the localization for the targeting of the polypeptide to the ovary, the four groups of mouse ovaries from Example 4 were fixed with 4% PFA, then cryosectioned (10 μm), stained for cell nuclei (DAPI), and observed for fluorescence localization under a laser confocal microscope.

ovary [2] = experiment: Mouse ovary-targeting capacity of polypeptide AIE probe (small animal imaging); type: in vivo; details: adult mice, tail vein injection 100 μL/mouse, imaged after 24 h; FIG. 2
Procedure: The polypeptide AIE probe (containing SEQ ID NO: 1) prepared in Example 2, a scrambled polypeptide AIE probe, an AIE empty particle, and PBS were injected intravenously into the tail of the adult mice at 100 μL/mouse. After 24 h, the mice were detected under an imager for small animals.

ovary [3] = experiment: Mouse ovary-targeting capacity of polypeptide ICG probe (small animal imaging); type: in vivo; details: adult mice, tail vein injection 100 μL/mouse, imaged after 24 h; FIG. 1
Procedure: A solution of the polypeptide ICG probe (containing SEQ ID NO: 1) prepared in Example 2, an ICG solution (2 mM), and PBS were injected intravenously into the tail of the adult mice at 100 μL/mouse. After 24 h, the mice were detected under an imager for small animals.

Compound: YLGASVPSPDPLEPT [OCN15, mouse metabolite, ovary-targeting polypeptide]
- anogenital distance ([1]; 500 μg/Kg gavage daily with DHT pump, 60 days after modeling, FIG. 4C): significantly improved
- number of estrous days in ten days ([1]; 500 μg/Kg gavage daily with DHT pump, 60 days modeling, normal above 4 days, hyperandrogenic around 2 days, FIG. 4B): ~3 days
- ovarian polycystic changes ([1]; 500 μg/Kg gavage daily with DHT pump, 60 days, FIG. 4A): reduce the polycystic changes
- body weight ([1]; 500 μg/Kg gavage daily with DHT pump, FIG. 5A): alleviate the increase in body weight
- body weight gain ([1]; 500 μg/Kg gavage daily with DHT pump, FIG. 5B): alleviate the increase in body weight and body weight gain caused by DHT to some extent
- weight of gonadal fat ([1]; 500 μg/Kg gavage daily with DHT pump, FIG. 5C): reducing the weight of mouse gonadal fat
- lean body mass ([1]; 500 μg/Kg gavage daily with DHT pump, FIG. 5D): increased lean body mass
- blood glucose level after oral administration of glucose ([1]; at 30 min after oral glucose, 60 days after modeling, FIG. 4D): significant decrease in blood glucose level compared with the group with DHT alone
- androgen receptor AR expression in the epidermal layer of the neck and back skin ([1]; day 60 of modeling, immunofluorescence, FIG. 6B): significantly reduce DHT-caused significant increase of androgen receptor AR expression
- hair loss on the neck and back skin ([1]; day 60 of modeling, FIG. 6A): can significantly improve the phenomenon
- oocyte fragmentation and degeneration (oocytes; 1 μg/mL polypeptide in M16, 12 h aging, FIG. 7A): ameliorate the fragmentation and degeneration caused by in vitro aging of oocytes
- zona pellucida sclerosis (oocytes; 1 μg/mL polypeptide in M16, 12 h aging, FIG. 7B): ameliorate the zona pellucida sclerosis caused by in vitro aging of oocytes
- in vitro fertilization rate (oocytes; 1 μg/mL polypeptide in M16, 12 h in vitro aging, FIG. 7C): improve the low fertilization rate caused by in vitro aging of oocytes
- liver lipid droplet accumulation (DHT model mice liver): alleviated

Compound: OCN15-AIE: AIE probe containing SEQ ID NO: 1, polypeptide linked to AIE by click chemistry (DBCO linker) (YLGASVPSPDPLEPT; also: AIE probe attached via DBCO click linker, site not given here)
- fluorescence localization in the ovary (mouse ovary): mainly targets the interstitial cell and the membrane cell in the mouse ovary
- fluorescent signal at the ovarian site (ovary [2]): has a specific signal at the ovarian site

Compound: OCN15-ICG: ICG probe containing SEQ ID NO: 1, polypeptide linked to ICG by click chemistry (DBCO linker) (YLGASVPSPDPLEPT; also: ICG dye attached via DBCO click linker, site not given here)
- fluorescent signal at the ovarian site (ovary [3]): has a specific signal at the ovarian site

Compound: CC1(C)C(/C=C/C=C/C=C/C=C2\N(CCCCS(=O)(=O)[O-])c3ccc4ccccc4c3C2(C)C)=[N+](CCCCS(=O)(=O)[O-])c2ccc3ccccc3c21.[Na+] [ICG, reference compound]
- fluorescent signal at the ovarian site (ovary [3]): do not show a fluorescent signal at the ovarian site

From patent publication US20250057911A1, “OVARY-TARGETING POLYPEPTIDE, AND DERIVATIVE AND THE USE THEREOF” (SHENZHEN INSTITUTES OF ADVANCEDTECHNOLOGY CHINESE ACADEMY …, priority 2022, published 2025)
